Where a SMILES comes first, the peptide text is derived from it. Bridges are numbered along the chain shown (N, C = ends). [ ]: non-standard residue; d: D form. Phe(4-COOH) = N[C@@H](Cc1ccc(C(=O)O)cc1)C(=O)O; R8 = C=CCCCCCC[C@@](C)(N)C(=O)O; Cba = N[C@@H](CC1CCC1)C(=O)O; S5 = C=CCCC[C@](C)(N)C(=O)O; Nle = CCCC[C@H](N)C(=O)O
Columns and labels:
[1] = Circular dichroism (CD) analysis of alpha-helicity; assay type: physicochemical; conditions: 222 nm; for Molar Ellipticity 50% TFE (222 in 50% TFE): CD buffer with 50% TFE; for Molar Ellipticity 50% TFE (222 in 50% TFE) / Molar Ellipticity Benign (222 in 0% TFE): 0.05 mg/ml, 4° C.; for Molar Ellipticity Benign (222 in 0% TFE): benign CD buffer (20 mM phosphoric acid, pH 2); for Molar Ellipticity TFE − Molar Ellipticity Benign: difference 50% TFE minus benign buffer
Experimental: A Peltier temperature controller was used to maintain temperature control of the optical cell. Results are expressed as mean molar ellipticity [θ] […] Peptide concentrations were determined by amino acid analysis. Stock solutions of peptides were prepared in benign CD buffer (20 mM phosphoric acid, pH 2). The stocks were used to prepare peptide solutions of 0.05 mg/ml in either benign CD buffer or CD buffer with 50% trifluoroethanol (TFE) for analyses in a 10 mm pathlength cell. […] The average of six scans was reported.

[2] = system: MCF-7 breast cancer xenograft; assay: MCF-7 breast cancer xenograft study; assay type: in vivo, female nude (Crl:NU-Foxn1nu) mice; conditions: for mice died during treatment: 10 mice per group
Experimental: A negative control stapled peptide. […] Slow release 90 day 0.72 mg 17β-estradiol pellets (Innovative Research, Sarasota, Fla.) were implanted subcutaneously (sc) on the nape of the neck one day prior to tumor cell implantation (Day −1). On Day 0, MCF-7 tumor cells were implanted sc in the flank of female nude (Crl:NU-Foxn1nu) mice. On Day 18, the resultant sc tumors were measured using calipers to determine their length and width and the mice were weighed. The tumor sizes were calculated using the formula (length×width^2)/2 and expressed as cubic millimeters (mm^3). Mice with tumors smaller than 85.3 mm^3 or larger than 417.4 mm^3 were excluded from the subsequent group formation. Thirteen groups of mice, 10 mice per group, were formed by randomization such that the group mean tumor sizes were essentially equivalent (mean of groups±standard deviation of groups=180.7±17.5 mm^3).
This formulation was prepared once for the duration of the study. This vehicle was used as the vehicle control in the subsequent study.
Each group was assigned to a different treatment regimen. Group 1, as the vehicle negative control group, received the vehicle administered at 8 mL/kg body weight intravenously (iv) three times per week from Days 18-39. […] Group 4 received 6.7 mg/kg SP249 as an iv injection three times per week. […] Group 9 received 30 mg/kg SP252 as an iv injection three times per week.
During the dosing period the mice were weighed and tumors measured 1-2 times per week.

[3] = 30 mg/kg iv three times per week

Structure (SMILES)	Molar Ellipticity 50% TFE (222 in 50% TFE) [1]	Molar Ellipticity Benign (222 in 0% TFE) [1]	Molar Ellipticity TFE − Molar Ellipticity Benign [1]	also measured
CCCC[C@H](NC(=O)[C@H](CCC(N)=O)NC(=O)[C@H](CCC(N)=O)NC(=O)[C@]1(C)CCCC=CCCCCCC[C@@](C)(NC(=O)[C@H](Cc2ccccc2)NC(C)=O)C(=O)N[C@@H](C)C(=O)N[C@@H](Cc2ccc(O)cc2)C(=O)N[C@@H](Cc2c[nH]c3ccccc23)C(=O)N[C@@H]([C@@H](C)O)C(=O)N[C@@H](C)C(=O)N[C@@H](CC(C)C)C(=O)N1)C(=O)N[C@@H](C(N)=O)C(C)C [compound 41] (Ac-F[R8]AYWTAL[S5]QQ[Nle][dV]-NH2; staple 2-9)	−21319.4 deg cm^2dmol^−1	−909 deg cm^2dmol^−1	20410.4 deg cm^2dmol^−1	
CCCC[C@H](NC(=O)[C@H](C)NC(=O)[C@H](C)NC(=O)[C@]1(C)CCC/C=C/CCCCCC[C@@](C)(NC(=O)[C@H](Cc2ccccc2)NC(=O)[C@@H](NC(=O)[C@H](CC(C)C)NC(C)=O)[C@@H](C)O)C(=O)N[C@@H](C)C(=O)N[C@@H](Cc2ccc(O)cc2)C(=O)N[C@@H](Cc2c[nH]c3ccccc23)C(=O)N[C@@H](C)C(=O)N[C@@H](CCC(N)=O)C(=O)N[C@@H](CC(C)C)C(=O)N1)C(=O)N[C@@H](C)C(N)=O [compound 69]	−21509.7 deg cm^2dmol^−1	−102.6 deg cm^2dmol^−1		
CC(=O)N[C@@H](CC(C)C)C(=O)N[C@H](C(=O)N[C@@H](Cc1ccccc1)C(=O)N[C@]1(C)CCCCCCC=CCCC[C@@](C)(C(=O)N[C@@H](CO)C(=O)N[C@@H](C)C(=O)N[C@@H](C)C(N)=O)NC(=O)[C@H](CC(C)C)NC(=O)[C@H](CCC(N)=O)NC(=O)[C@H](C)NC(=O)[C@H](Cc2c[nH]c3ccccc23)NC(=O)[C@H](Cc2ccc(O)cc2)NC(=O)[C@H](C)NC1=O)[C@@H](C)O [compound 11] (Ac-LTF[R8]AYWAQL[S5]SAA-NH2; staple 4-11)	−16623.4 deg cm^2dmol^−1	−398.2 deg cm^2dmol^−1	16225.2 deg cm^2dmol^−1	
CC(=O)N[C@@H](CC(C)C)C(=O)N[C@H](C(=O)N[C@@H](Cc1ccccc1)C(=O)N[C@]1(C)CCCCCCC=CCCC[C@@](C)(C(=O)N[C@@H](Cc2c[nH]cn2)C(=O)N[C@@H](Cc2c[nH]cn2)C(=O)N[C@@H](CC(C)C)C(=O)N[C@H](C)C(N)=O)NC(=O)[C@H](CC(C)C)NC(=O)[C@H](CCC(N)=O)NC(=O)[C@H](C)NC(=O)[C@H](Cc2c[nH]c3ccccc23)NC(=O)[C@H](Cc2ccc(O)cc2)NC(=O)[C@H](C)NC1=O)[C@@H](C)O [compound 43] (Ac-LTF[R8]AYWAQL[S5]HHL[dA]-NH2; staple 4-11)	−18247.4 deg cm^2dmol^−1	−15334.5 deg cm^2dmol^−1	2912.9 deg cm^2dmol^−1	
CC(=O)N[C@@H](CC(C)C)C(=O)N[C@H](C(=O)N[C@@H](Cc1ccccc1)C(=O)N[C@]1(C)CCCCCCC=CCCC[C@@](C)(C(=O)N[C@@H](C)C(=O)N[C@@H](C)C(=O)N[C@@H](C)C(=O)N[C@@H](C)C(=O)N[C@H](C)C(N)=O)NC(=O)[C@H](CC(C)C)NC(=O)[C@H](CCC(N)=O)NC(=O)[C@H](C)NC(=O)[C@H](Cc2c[nH]c3ccccc23)NC(=O)[C@H](Cc2ccc(O)cc2)NC(=O)[C@H](C)NC1=O)[C@@H](C)O [compound 233]	−19032.6 deg cm^2dmol^−1	−477.9 deg cm^2dmol^−1	−18554.7 deg cm^2dmol^−1	
CC(=O)N[C@@H](CC(C)C)C(=O)N[C@H](C(=O)N[C@@H](Cc1ccccc1)C(=O)N[C@]1(C)CCCCCCC=CCCC[C@@](C)(C(=O)N[C@@H](CO)C(=O)N[C@@H](C)C(=O)N[C@@H](C)C(N)=O)NC(=O)[C@H](CC2CCC2)NC(=O)[C@H](CCC(N)=O)NC(=O)[C@H](C)NC(=O)[C@H](Cc2c[nH]c3ccccc23)NC(=O)[C@H](Cc2ccc(O)cc2)NC(=O)[C@H](CCC(=O)O)NC1=O)[C@@H](C)O [SP154]				% BW Change ([2]; 30 mg/kg 3x/wk iv, mice): +5.7%; No. with ≧10% BW Loss ([2]; 30 mg/kg 3x/wk iv, mice): 0/10; No. with ≧20% BW Loss or death ([2]; 30 mg/kg 3x/wk iv, mice): 0/10; tolerability of dosing regimen [2, 3]: well-tolerated; No. with ≧10% BW Loss ([2]; 40 mg/kg 2x/wk iv, mice): 0/10; No. with ≧20% BW Loss or death ([2]; 40 mg/kg 2x/wk iv, mice): 2/10; tolerability of dosing regimen ([2]; 40 mg/kg iv twice a week): not tolerable; mice died during treatment ([2]; 40 mg/kg iv twice a week): 2 mice
CC(=O)N[C@@H](CC(C)C)C(=O)N[C@H](C(=O)N[C@@H](Cc1ccccc1)C(=O)N[C@]1(C)CCCCCCC=CCCC[C@@](C)(C(=O)N[C@@H](C)C(=O)N[C@@H](C)C(=O)N[C@@H](C)C(=O)N[C@H](C)C(N)=O)NC(=O)[C@H](CC(C)C)NC(=O)[C@H](CCC(N)=O)NC(=O)[C@H](C)NC(=O)[C@H](Cc2c[nH]c3ccccc23)NC(=O)[C@H](Cc2ccc(O)cc2)NC(=O)[C@H](C)NC1=O)[C@@H](C)O (single isomer, unassigned) [compound 230]	−17974 deg cm^2dmol^−1	−213.2 deg cm^2dmol^−1	−17760.8 deg cm^2dmol^−1	
CC(=O)N[C@@H](CC(C)C)C(=O)N[C@H](C(=O)N[C@@H](Cc1ccccc1)C(=O)N[C@]1(C)CCCCCCC=CCCC[C@@](C)(C(=O)N[C@@H](CO)C(=O)N[C@@H](C)C(=O)N[C@@H](Cc2ccccc2)C(N)=O)NC(=O)[C@H](CC(C)C)NC(=O)[C@H](CCC(N)=O)NC(=O)[C@H](C)NC(=O)[C@H](Cc2c[nH]c3ccccc23)NC(=O)[C@H](Cc2ccc(O)cc2)NC(=O)[C@H](C)NC1=O)[C@@H](C)O [compound 7] (Ac-LTF[R8]AYWAQL[S5]SAF-NH2; staple 4-11)	−19921.4 deg cm^2dmol^−1	124 deg cm^2dmol^−1	−20045.4 deg cm^2dmol^−1	
CC[C@H](C)[C@H](NC(=O)[C@H](C)NC(=O)[C@H](C)NC(=O)[C@]1(C)CCC/C=C/CCCCCC[C@@](C)(NC(=O)[C@H](Cc2ccccc2)NC(=O)[C@@H](NC(=O)[C@H](CC(C)C)NC(C)=O)[C@@H](C)O)C(=O)N[C@@H](C)C(=O)N[C@@H](Cc2ccc(O)cc2)C(=O)N[C@@H](Cc2c[nH]c3ccccc23)C(=O)N[C@@H](C)C(=O)N[C@@H](CCC(N)=O)C(=O)N[C@@H](CC(C)C)C(=O)N1)C(=O)N[C@H](C)C(N)=O [compound 71]	−17957 deg cm^2dmol^−1	−121.2 deg cm^2dmol^−1	−17835.9 deg cm^2dmol^−1	
CC(=O)N[C@@H](CC(C)C)C(=O)N[C@H](C(=O)N[C@@H](C)C(=O)N[C@]1(C)CCCCCCC=CCCC[C@@](C)(C(=O)N[C@@H](CO)C(=O)N[C@@H](C)C(=O)N[C@@H](C)C(N)=O)NC(=O)[C@H](CC2CCC2)NC(=O)[C@H](CCC(N)=O)NC(=O)[C@H](C)NC(=O)[C@H](Cc2c[nH]c3ccccc23)NC(=O)[C@H](Cc2ccc(O)cc2)NC(=O)[C@H](CCC(=O)O)NC1=O)[C@@H](C)O [SP252]				body weight loss or deaths [2, 3]: no body weight loss or deaths noted
CC[C@H](C)[C@H](NC(=O)[C@H](C)NC(=O)[C@H](C)NC(=O)[C@]1(C)CCCC=CCCCCCC[C@@](C)(NC(=O)[C@H](Cc2ccccc2)NC(=O)[C@@H](NC(=O)[C@H](CC(C)C)NC(C)=O)[C@@H](C)O)C(=O)N[C@@H](CCC(=O)O)C(=O)N[C@@H](Cc2ccc(C(=O)O)cc2)C(=O)N[C@@H](Cc2c[nH]c3ccccc23)C(=O)N[C@@H](C)C(=O)N[C@@H](CCC(N)=O)C(=O)N[C@@H](CC2CCC2)C(=O)N1)C(=O)N[C@H](C)C(N)=O [SP249] (Ac-LTF[R8]E[Phe(4-COOH)]WAQ[Cba][S5]AAI[dA]-NH2; staple 4-11)				mice died during treatment ([2]; […] iv three times per week): 4 mice
